# From US20010053848A1, “Hetero-oligomeric G protein-coupled receptors as novel drug targets” (priority 2000, published 2001)
# Where two headings read alike, the source gives them in different places. Marks after values point to notes of the source that are not given here.
# Experiments:
# HA-SSTR5 and D2R = HA-SSTR5 and D2R (Homo sapiens, UniProt P14416+P35346); details: GTPγS 10^−4M, 30 min at 37° C.
# wild type hSSTR5 and DOR = wild type hSSTR5 and DOR (Homo sapiens, UniProt P35346+P41143); details: for effect on inhibition of radioligand binding induced by GTPγS: [125I] LTT SST-28 radioligand
# From the text: LTT SST-28 binding by the cotransfectants. In order to characterize G protein function, wild type hSSTR5 and DOR were stably coexpressed in CHO-K1 cells.
# [1] = target: T1, delta C-tail hSSTR5 with DOR (Homo sapiens, UniProt P35346+P41143, DEL319-364); test: Inhibition of forskolin-stimulated cAMP, delta C-tail hSSTR5 co-expressed with DOR in CHO-K1 cells; type: cell-based; details: naltrindole (10^−5 M)
# T1 construct: expressed in transfected cells
# [2] = target: T2, DOR and SSTR5 hetero-oligomer (Homo sapiens, UniProt P35346+P41143); test: Inhibition of FSK-stimulated cAMP, hSSTR5/DOR cotransfectants; type: cell-based; details: SST-14 plus naltrindole
# T2 construct: expressed in transfected cells
# [3] = target: HA-SSTR5 and D2R hetero-oligomer (Homo sapiens, UniProt P14416+P35346); test: pbFRET microscopy, CHO-K1 cells co-expressing HA-SSTR5 and D2R; type: cell-based
# Experimental: Generally, FRET efficiencies are determined indirectly by measuring changes in the quantum yield of any competitive donor deactivation process upon introduction of an acceptor molecule. Donor photobleaching represents such a competitive process which is exploited in pbFRET-microscopy. The effective FRET efficiency E is calculated from the photobleaching time constants of the donor obtained in the absence (τD−A) and presence (τD+A) of acceptor according to: [formula]
# CHO-K1 cells, stably cotransfected with HA-hSSTR5 and D2R, were grown on glass coverslips for 24 hours, treated with various agonists/antagonists for 30 minutes at 37° C., washed and fixed in 1% paraformaldehyde for 30 minutes on ice. […] Coverslips were mounted on microscope slides and used for pbFRET-microscopy the day after.
# pbFRET experiments were performed on a Leica DMLB fluorescence microscope equipped with epi-illumination. An OSRAM HBO 100 W Hg lamp was used as excitation light source and the objective was a Leica pl-fluotar 40× oil immersion lens. […] For each cell, a sequence of 20 images was acquired during donor-photobleaching. One image was collected every 4 s with exposure time of 1 s. Exposure as well as time delays were software controlled.
# Images were corrected for dark current, background and flatness. For analysis of the photobleaching decay, only the high-intensity plasma membrane region was considered, low intensity background and intracellular regions were masked.
# HA-hSSTR5 and D2R were specifically labeled with FITC (donor) and rhodamine (acceptor), respectively using mouse monoclonal antibody against HA and rabbit polyclonal anti-D2R antibody, followed by reaction with FITC conjugated goat anti-mouse and rhodamine conjugated goat anti-rabbit secondary antibody. […] FIG. 4A Left panel: HA-SSTR5 (visualized with mouse anti-HA mAb and FITC-conjugated goat anti-mouse IgG). FIG. 4A Middle panel: D2R (rabbit polyclonal antibody and rhodamine-conjugated goat anti-rabbit IgG). […] Magnification: ×630.
# The decrease in donor fluorescence intensity due to photobleaching during prolonged exposure to excitation light was monitored in the absence (FIG. 4B, I-III) or presence (FIG. 4B, IV-VI) of acceptor, i.e. in the potential presence of an additional donor deactivation process, FRET. Cells were reacted with primary antibodies and either with FITC-conjugated goat-anti-mouse IgG (donor in the absence of acceptor) (I-III), or with both FITC-conjugated goat-anti-mouse and rhodamine-conjugated goat-anti-rabbit IgG (donor in the presence of acceptor) (IV-VI). FIG. 4B I. Photobleaching of donor in the absence of acceptor (only selection of images shown). For analysis of the photobleaching decay, only the high-intensity membrane region was considered, low intensity background and intracellular regions were masked (black). […] FIG. 4B II. The average fluorescence intensity of each image was plotted versus the time that the cell had been exposed to excitation light. […] FIG. 4B III. The decrease of fluorescence intensity was analysed for each pixel of the unmasked region and fitted to a single-exponential decay. The resulting time constants were plotted in the histogram shown. […] Photobleaching of donor in the presence of acceptor. […] FIG. 4B, IV-VI.
# The photobleaching decay was analyzed for the plasma membrane regions, both on a pixel-by-pixel basis (FIG. 4, III & VI) as well as averaged over each image (FIG. 4, II & V).
# [4] = i.c.v. in monkeys; cited from earlier work
# [5] = intrathecal or epidural; post-operative and neoplastic pain; cited from earlier work
# [6] = target: T3, delta318 SSTR5-D2R putative hetero-oligomers (Homo sapiens, UniProt P14416+P35346, DEL319-364); test: cell-based; details: for effect on SST inhibition of forskolin-stimulated cAMP: pertussis toxin 100 ng/ml pretreatment 2 h, sulpiride 10^−4 M
# T3 construct: expressed in transfected cells
# T3 sequence (P14416 whole entry, stated change not applied): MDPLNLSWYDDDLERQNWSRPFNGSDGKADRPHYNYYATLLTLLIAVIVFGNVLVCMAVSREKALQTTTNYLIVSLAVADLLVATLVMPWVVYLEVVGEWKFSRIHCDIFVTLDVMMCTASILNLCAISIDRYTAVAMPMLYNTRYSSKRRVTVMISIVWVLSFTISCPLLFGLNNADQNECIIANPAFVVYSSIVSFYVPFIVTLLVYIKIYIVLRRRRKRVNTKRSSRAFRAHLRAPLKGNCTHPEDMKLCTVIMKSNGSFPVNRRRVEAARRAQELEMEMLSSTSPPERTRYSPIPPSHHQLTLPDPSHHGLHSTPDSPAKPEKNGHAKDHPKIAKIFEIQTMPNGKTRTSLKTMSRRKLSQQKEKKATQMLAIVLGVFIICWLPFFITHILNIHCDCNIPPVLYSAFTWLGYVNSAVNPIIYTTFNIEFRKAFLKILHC
# T3 sequence (P35346 1-318, stated change not applied): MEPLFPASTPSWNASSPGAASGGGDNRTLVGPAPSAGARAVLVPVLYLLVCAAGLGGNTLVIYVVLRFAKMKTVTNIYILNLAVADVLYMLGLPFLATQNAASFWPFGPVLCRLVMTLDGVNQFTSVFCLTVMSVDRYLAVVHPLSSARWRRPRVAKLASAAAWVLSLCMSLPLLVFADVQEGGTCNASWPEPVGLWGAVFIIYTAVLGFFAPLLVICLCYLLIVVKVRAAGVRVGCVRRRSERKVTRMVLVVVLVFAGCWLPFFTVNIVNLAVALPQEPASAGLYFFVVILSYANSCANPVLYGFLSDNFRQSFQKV
# Sequence of wild type hSSTR5 and DOR (P35346 whole entry): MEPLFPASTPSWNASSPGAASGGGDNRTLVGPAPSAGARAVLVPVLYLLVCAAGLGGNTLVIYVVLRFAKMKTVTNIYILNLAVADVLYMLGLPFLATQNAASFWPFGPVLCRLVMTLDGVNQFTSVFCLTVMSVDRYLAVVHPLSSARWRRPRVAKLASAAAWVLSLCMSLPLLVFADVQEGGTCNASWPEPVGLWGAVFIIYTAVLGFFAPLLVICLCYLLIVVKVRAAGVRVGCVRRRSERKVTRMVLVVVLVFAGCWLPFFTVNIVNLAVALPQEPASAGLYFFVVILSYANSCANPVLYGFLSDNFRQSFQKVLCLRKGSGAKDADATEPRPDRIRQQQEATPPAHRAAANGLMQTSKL
# Sequence of wild type hSSTR5 and DOR (P41143 whole entry): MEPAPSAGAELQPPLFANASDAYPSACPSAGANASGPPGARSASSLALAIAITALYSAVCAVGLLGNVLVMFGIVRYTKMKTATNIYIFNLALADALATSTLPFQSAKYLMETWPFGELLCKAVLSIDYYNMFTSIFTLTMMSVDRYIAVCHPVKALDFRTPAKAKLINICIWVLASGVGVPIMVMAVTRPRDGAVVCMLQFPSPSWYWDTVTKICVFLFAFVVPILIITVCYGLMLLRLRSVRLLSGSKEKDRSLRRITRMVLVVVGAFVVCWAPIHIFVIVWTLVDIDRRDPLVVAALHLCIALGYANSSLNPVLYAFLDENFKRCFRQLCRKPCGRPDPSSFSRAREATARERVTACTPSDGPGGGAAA
# Sequence of HA-SSTR5 and D2R hetero-oligomer (P35346 whole entry): as the sequence (P35346 whole entry) above
# Sequence of HA-SSTR5 and D2R hetero-oligomer (P14416 whole entry): as the sequence (P14416 whole entry, stated change not applied) above
# Sequence of HA-SSTR5 and D2R (P35346 whole entry): as the sequence (P35346 whole entry) above
# Sequence of HA-SSTR5 and D2R (P14416 whole entry): as the sequence (P14416 whole entry, stated change not applied) above
# T2 sequence (P35346 whole entry): as the sequence (P35346 whole entry) above
# T2 sequence (P41143 whole entry): as the sequence (P41143 whole entry) above
# T1 sequence (P35346 1-318 limits assumed, stated change not applied): as the sequence (P35346 1-318, stated change not applied) above
# T1 sequence (P41143 whole entry, stated change not applied): as the sequence (P41143 whole entry) above
compound,measurement,setting,value
Nc1nc2c(ncn2[C@@H]2O[C@H](COP(=O)(O)OP(=O)(O)OP(O)(O)=S)[C@@H](O)[C@H]2O)c(=O)[nH]1 [GTPγS],decrease in specific radioligand binding,HA-SSTR5 and D2R,41±3%
"C[C@@H](NC(=O)[C@@H](N)Cc1ccc(O)cc1)C(=O)NCC(=O)N(C)[C@@H](Cc1ccccc1)C(=O)NCCO [DAMGO, [D-Ala^2, N-MePhe^4, Gly-ol^5]-Enkephalin]",effect on inhibition of radioligand binding induced by GTPγS,wild type hSSTR5 and DOR,without effect
Oc1ccc2c3c1O[C@H]1c4[nH]c5ccccc5c4C[C@@]4(O)[C@@H](C2)N(CC2CC2)CC[C@]314 [naltrindole],effect on SST-14 inhibition of FSK-stimulated cAMP,[1],abolished
same,SST-14 induced cAMP inhibition in the presence of the ligand,[2],20±4%
same,effect on inhibition of radioligand binding induced by GTPγS,wild type hSSTR5 and DOR,reversed
same,G-protein coupling efficiency,wild type hSSTR5 and DOR; enhancement by DOR ligand,reduced coupling
CCc1cc(Cl)c(OC)c(C(=O)NC[C@@H]2CCCN2CC)c1O [eticlopride],E[%] average effective FRET-efficiency,[3],3±3%
same,"τavg[S] mean photobleaching time constant, D + A",[3],D + A: 19.4 ± 0.4 S
same,"τavg[S] mean photobleaching time constant, D − A",[3],D − A: 18.9 ± 0.3*^) S
C[C@@H](O)[C@@H]1NC(=O)[C@H](CCCCN)NC(=O)[C@@H](Cc2c[nH]c3ccccc23)NC(=O)[C@H](Cc2ccccc2)NC(=O)[C@@H](NC(=O)[C@H](N)Cc2ccccc2)CSSC[C@@H](C(=O)N[C@H](CO)[C@@H](C)O)NC1=O [octreotide],neurobehavioral effect,[4],Parkinsonian syndrome
same,analgesic effect,[5],powerful analgesic effects
CCN1CCCC1CNC(=O)c1cc(S(N)(=O)=O)ccc1OC (stereo not shown) [sulpiride],effect on SST inhibition of forskolin-stimulated cAMP,[6],completely abolished
same,"τavg[S] mean photobleaching time constant, D − A","[3]; donor in absence of acceptor, ± SEM",D − A: 17.9 ± 0.3 S
same,"τavg[S] mean photobleaching time constant, D + A","[3]; donor in presence of acceptor, ± SEM",D + A: 19.2 ± 0.3 S
pertussis toxin,effect on SST inhibition of forskolin-stimulated cAMP,[6],completely abolished
"NCCc1ccc(O)c(O)c1 [DA, dopamine]",inhibition at 1 µM,"[6]; CHO-K1, read-out: maximum inhibition of forskolin-stimulated cAMP",30 ± 1.7%
same,E[%] average effective FRET-efficiency,[3],16±2%
same,"τavg[S] mean photobleaching time constant, D + A",[3],D + A: 21.3 ± 0.3 S
same,"τavg[S] mean photobleaching time constant, D − A",[3],D − A: 17.9 ± 0.3 S
